Literature values in paper PMC3297008, “Novel Marine Phenazines as Potential Cancer Chemopreventive and Anti-Inflammatory Agents” (Marine Drugs, 2012).
Read-outs that look alike come from different tables or passages of the source.

Columns and labels:
5-α-reductase [1] = system: 5-α-reductase; set-up: method as in PMID 2503481; conditions: derived from human prostate; cited from earlier work
5-α-reductase [2] = system: 5-α-reductase; set-up: method as in PMID 2503481; conditions: derived from dog prostate; cited from earlier work
P388 cells = system: P388 cells; set-up: method as in PMID 2753825; conditions: cited from earlier work

For CC1=C(Cn2c3cccc(=O)c-3nc3ccccc32)CCC(C)(C)C1 [Lavanducyanin 3, lavanducyanin], the “inhibition of 5-α-reductase” value (5-α-reductase [1]) is listed as “competitively inhibits”, the “inhibition of 5-α-reductase” value (5-α-reductase [2]) is listed as “competitively inhibits” and the “growth inhibition of P388 cells in culture” value (P388 cells) is listed as “strongly inhibits the growth”.
